Test results taken from article PMC11819893, “Isolation and Bioassay of Linear Veraguamides from a Marine Cyanobacterium (Okeania sp.)” (Molecules, 2025).
Numbered stars: 1 amine (or outer) side, 2 acyl side, 3 side chain; on linkers, the order of the positions; unused ones are H or OH. Square brackets hold non-standard residues; d marks the D form. Peptide text beside a SMILES is read from it. * marks the point of attachment. NMeI = CC[CH](C)[CH](NC)C(=O)O; X2 = CCC(C)C(O[*:1])C(=O)[*:2]; NMeV = CN[CH](C(=O)O)C(C)C; X1 = C#CCCCC(O)C(C)C(=O)*

Experiments:
MDA-MB-231 cells = test: MTT cytotoxicity assay in MDA-MB-231 (TNBC) cells; type: cell-based, human; conditions: for cytotoxicity / effect on viability in words: TNBC (MDA-MB-231) cells, MTT
Method: (§1) The human triple-negative breast cancer cell line MDA-MB-231 was obtained from ATCC and was maintained in DMEM:F-12 (1:1) (Life Technologies, Carlsbad, CA, USA), 10% Fetal Bovine Serum (Atlanta Biologicals, Atlanta, GA, USA), and 1% Penicillin/Streptomycin (Sigma, St. Louis, MO, USA). The estrogen-positive MCF-7 cell line was also obtained from ATCC and was maintained in 1640 RPMI media (Life technologies), 10% FBS, and 1% Penicillin/Streptomycin. HEK-293 cells were also obtained from ATCC and maintained in Dulbecco’s Modification of Eagle’s Medium (DMEM), 10% Fetal Bovine Serum (FBS), and 1% Penicillin/Streptomycin (Pen/Strep).
(§2) Two rounds of toxicity experimentation were completed. First, MDA-MB-231 and MCF-7 cells were plated at a density of 5 × 10^3 cells per well in a 96-well plate. Cells were allowed to attach overnight. The cells were treated with depsipeptides or vehicle for 72 h with 5% FBS stimulation. DMSO was used as a vehicle control. After treatment, 10 μ L MTT (Sigma) was added to each well (0.5 mg/mL final concentration), and the plates were incubated for 3 h (5% CO2 and 37 °C). The medium was removed and the MTT-formazan crystals were dissolved with 100 μ L DMSO per well. The absorbance was measured at 570 nm with a VICTOR^3 1420 multilabel counter (Perkin Elmer, Springfield, IL, USA). Three wells were analyzed for each condition, and wells containing medium-MTT only (no cells) and medium-MTT (DMSO + 5% FBS) were used as controls. Results were normalized to the DMSO + 5% FBS group.

MCF-7 cells = test: MTT cytotoxicity assay in MCF-7 (estrogen positive) cells; type: cell-based, human; conditions: ER-positive MCF-7 cells, 72 h, listed as Veraguamide O
Method: as §1
as §2, with “The medium was removed and the MTT-formazan crystals were dissolved with 100 μ L DMSO per well.” left out, “Results were normalized to the DMSO + 5% FBS group.” left out

C#CCCCC(O)C(C)C(=O)NC(C(=O)N(C)C(C(=O)OC(C(=O)N1CCCC1C(=O)N(C)C(C(=O)O)C(C)CC)C(C)CC)C(C)C)C(C)CC (stereo not drawn) [Veraguamide O (1)] (X1-I[NMeV][X2]P[NMeI]-OH; configuration not given here) was tested, and the “cell death observed microscopically” value (MDA-MB-231 cells; MDA-MB-231 (TNBC), 10 μM, microscopy) was “appeared to induce cell death”, the viability (MDA-MB-231 cells; MDA-MB-231, MTT, 72 h, 0.14 µM, % of DMSO + 5% FBS control) was 86% and the “selectivity for TNBC over estrogen-positive cells, in words” value (MDA-MB-231 cells; MDA-MB-231 compared to MCF-7, MTT) was “selective inhibitory effects against TNBC (MDA-MB-231) cells compared to estrogen-positive (MCF-7) breast cancer cells”. The “cytotoxicity / effect on viability in words” value (shortened to “cytotoxicity / effect”) (MDA-MB-231 cells; 72 h) was “decreased viability in MDA-MB-231 cells in a concentration-dependent manner”, the “cytotoxicity / effect” value (MDA-MB-231 cells; 72 h, listed as veraguamide O) was “similar, albeit minor, levels of toxicity” and the “cytotoxicity / effect” value (MCF-7 cells) was “no cytotoxicity”.
